Assays:
[1] = system: NCI-H226; experiment: Growth inhibition of human NCI-H226 cells at 10 uM after 48 hrs by sulforhodamine B assay; type: functional; details: NCI-H226, 48 h, values are per cent of control
[2] = system: UO-31; experiment: Growth inhibition of human UO31 cells at 10 uM after 48 hrs by sulforhodamine B assay; type: functional; details: UO-31, 48 h, values are per cent of control
[3] = system: SF-295; experiment: Growth inhibition of human SF295 cells at 10 uM after 48 hrs by sulforhodamine B assay; type: functional; details: SF-295, 48 h, values are per cent of control
[4] = system: MOLT-4; experiment: Growth inhibition of human MOLT4 cells at 10 uM after 48 hrs by sulforhodamine B assay; type: functional; details: MOLT-4, 48 h, values are per cent of control
[5] = system: HOP-62; experiment: Growth inhibition of human HOP62 cells at 10 uM after 48 hrs by sulforhodamine B assay; type: functional; details: HOP-62, 48 h, values are per cent of control
[6] = system: M14; experiment: Growth inhibition of human M14 cells at 10 uM after 48 hrs by sulforhodamine B assay; type: functional; details: M14, 48 h, values are per cent of control
[7] = system: CCRF-CEM; experiment: Growth inhibition of human CCRF-CEM cells at 10 uM after 48 hrs by sulforhodamine B assay; type: functional; details: values are per cent of control
[8] = system: Rattus norvegicus; experiment: Antiinflammatory activity against carrageenan-induced paw edema in Wister albino rat assessed as inhibition of edema at 50 mg/kg, ip administered 1 hr prior to carrageenan challenge measured after 4 hrs relative to control; type: functional; details: route intraperitoneal
[9] = system: HT-29; experiment: Growth inhibition of human HT-29 cells at 10 uM after 48 hrs by sulforhodamine B assay; type: functional; details: HT-29, 48 h, values are per cent of control
[10] = system: EKVX; experiment: Growth inhibition of human EKVX cells at 10 uM after 48 hrs by sulforhodamine B assay; type: functional; details: values are per cent of control
[11] = system: SK-OV-3; experiment: Growth inhibition of human SKOV3 cells at 10 uM after 48 hrs by sulforhodamine B assay; type: functional; details: SK-OV-3, 48 h, values are per cent of control
[12] = system: Malme-3M; experiment: Growth inhibition of human MALME-3M cells at 10 uM after 48 hrs by sulforhodamine B assay; type: functional; details: values are per cent of control
[13] = system: KM12; experiment: Growth inhibition of human KM12 cells at 10 uM after 48 hrs by sulforhodamine B assay; type: functional; details: KM12, 48 h, values are per cent of control
[14] = system: Rattus norvegicus; experiment: Antiinflammatory activity against carrageenan-induced paw edema in Wister albino rat assessed as inhibition of edema at 50 mg/kg, ip administered 1 hr prior to carrageenan challenge measured after 3 hrs relative to control; type: functional; details: route intraperitoneal
[15] = system: T47D; experiment: Growth inhibition of human T47D cells at 10 uM after 48 hrs by sulforhodamine B assay; type: functional; details: values are per cent of control
[16] = system: NCI-H460; experiment: Growth inhibition of human NCI-H460 cells at 10 uM after 48 hrs by sulforhodamine B assay; type: functional; details: NCI-H460, 48 h, values are per cent of control
[17] = system: Rattus norvegicus; experiment: Antiinflammatory activity against carrageenan-induced paw edema in Wister albino rat assessed as inhibition of edema at 50 mg/kg, ip administered 1 hr prior to carrageenan challenge measured after 2 hrs relative to control; type: functional; details: route intraperitoneal
[18] = system: K562; experiment: Growth inhibition of human K562 cells at 10 uM after 48 hrs by sulforhodamine B assay; type: functional; details: K562, 48 h, values are per cent of control
[19] = system: SF-539; experiment: Growth inhibition of human SF539 cells at 10 uM after 48 hrs by sulforhodamine B assay; type: functional; details: SF-539, 48 h, values are per cent of control
[20] = system: SN12C; experiment: Growth inhibition of human SN12C cells at 10 uM after 48 hrs by sulforhodamine B assay; type: functional; details: values are per cent of control
[21] = system: COLO 205; experiment: Growth inhibition of human COLO205 cells at 10 uM after 48 hrs by sulforhodamine B assay; type: functional; details: COLO 205, 48 h, values are per cent of control
[22] = system: OVCAR-5; experiment: Growth inhibition of human OVCAR5 cells at 10 uM after 48 hrs by sulforhodamine B assay; type: functional; details: OVCAR-5, 48 h, values are per cent of control
[23] = system: HCC 2998; experiment: Growth inhibition of human HCC2998 cells at 10 uM after 48 hrs by sulforhodamine B assay; type: functional; details: HCC 2998, 48 h, values are per cent of control
[24] = system: MDA-MB-435; experiment: Growth inhibition of human MDA-MB-435 cells at 10 uM after 48 hrs by sulforhodamine B assay; type: functional; details: MDA-MB-435, 48 h, values are per cent of control
[25] = system: U-251; experiment: Growth inhibition of human U251 cells at 10 uM after 48 hrs by sulforhodamine B assay; type: functional; details: U-251, 48 h, values are per cent of control
[26] = system: HOP-92; experiment: Growth inhibition of human HOP92 cells at 10 uM after 48 hrs by sulforhodamine B assay; type: functional; details: HOP-92, 48 h, read-out: GI
[27] = system: LOX IMVI; experiment: Growth inhibition of human LOXIMVI cells at 10 uM after 48 hrs by sulforhodamine B assay; type: functional; details: values are per cent of control
[28] = system: SW-620; experiment: Growth inhibition of human SW620 cells at 10 uM after 48 hrs by sulforhodamine B assay; type: functional; details: SW-620, 48 h, values are per cent of control
[29] = system: OVCAR-4; experiment: Growth inhibition of human OVCAR4 cells at 10 uM after 48 hrs by sulforhodamine B assay; type: functional; details: OVCAR-4, 48 h, values are per cent of control
[30] = system: TK-10; experiment: Growth inhibition of human TK10 cells at 10 uM after 48 hrs by sulforhodamine B assay; values are per cent of control; details: TK-10, 48 h
[31] = system: RPMI-8226; experiment: Growth inhibition of human RPMI8226 cells at 10 uM after 48 hrs by sulforhodamine B assay; type: functional; details: RPMI-8226, 48 h, read-out: GI
[32] = system: NCI-H322M; experiment: Growth inhibition of human NCI-H322M cells at 10 uM after 48 hrs by sulforhodamine B assay; type: functional; details: values are per cent of control
[33] = system: 786-0; experiment: Growth inhibition of human 786-0 cells at 10 uM after 48 hrs by sulforhodamine B assay; type: functional; details: 786-0, 48 h, values are per cent of control
[34] = system: A498; experiment: Growth inhibition of human A498 cells at 10 uM after 48 hrs by sulforhodamine B assay; type: functional; details: A498, 48 h, values are per cent of control
[35] = system: UACC-257; experiment: Growth inhibition of human UACC257 cells at 10 uM after 48 hrs by sulforhodamine B assay; type: functional; details: UACC-257, 48 h, values are per cent of control
[36] = Growth inhibition of human Hs 578T cells at 10 uM after 48 hrs by sulforhodamine B assay; type: functional; details: values are per cent of control
[37] = system: Rattus norvegicus; experiment: Antiinflammatory activity against carrageenan-induced paw edema in Wister albino rat assessed as inhibition of edema at 50 mg/kg, ip administered 1 hr prior to carrageenan challenge measured after 1 hr relative to control; type: functional; details: route intraperitoneal
[38] = system: MDA-MB-231; experiment: Growth inhibition of human MDA-MB-231 cells at 10 uM after 48 hrs by sulforhodamine B assay; type: functional; details: MDA-MB-231, 48 h, values are per cent of control

Row | Structure (SMILES) | growth, % of control at 10 µM [1] | growth, % of control at 10 µM [2] | growth, % of control at 10 µM [3] | growth, % of control at 10 µM [4] | growth, % of control at 10 µM [5] | growth, % of control at 10 µM [6] | growth, % of control at 10 µM [7] | inhibition in vivo at 50 mg/kg [8] | growth, % of control at 10 µM [9] | growth, % of control at 10 µM [10] | growth, % of control at 10 µM [11] | growth, % of control at 10 µM [12] | growth, % of control at 10 µM [13] | inhibition in vivo at 50 mg/kg [14] | growth, % of control at 10 µM [15] | growth, % of control at 10 µM [16] | inhibition in vivo at 50 mg/kg [17] | growth, % of control at 10 µM [18] | growth, % of control at 10 µM [19] | growth, % of control at 10 µM [20] | further results
1 | [3H]N1C(=O)[C@@]2(c3ccccc31)N(C)C[C@@H](c1ccc(OC)cc1)[C@@]21Cc2ccccc2C1=O | 85.9% | 92.5% | 103% | 79.8% | 100% | 97.5% | 87.3% | 21.8% | 138% | 92.4% | 97.3% | 132% | 95.3% | 20.5% | 97.5% | 107% | 17.5% | 93.9% | 101% | 105% | growth, % of control at 10 µM [21]: 100%; growth, % of control at 10 µM [22]: 106%; growth, % of control at 10 µM [23]: 76.7%; growth, % of control at 10 µM [24]: 124%; growth, % of control at 10 µM [25]: 96.7%; inhibition of growth at 10 µM [26]: 62.5%; growth, % of control at 10 µM [27]: 80.5%; growth, % of control at 10 µM [28]: 87.5%; growth, % of control at 10 µM [29]: 118%; growth, % of control at 10 µM [30]: 176%; inhibition of growth at 10 µM [31]: 66.8%; growth, % of control at 10 µM [32]: 111%; growth, % of control at 10 µM [33]: 102%; growth, % of control at 10 µM [34]: 105%; growth, % of control at 10 µM [35]: 99.3%; growth, % of control at 10 µM [36]: 16.8%; inhibition in vivo at 50 mg/kg [37]: 41.2%; growth, % of control at 10 µM [38]: 74.4%
2 | [3H]C([3H])([3H])N1C(=O)[C@@]2(c3ccccc31)N(C)C[C@@H](c1ccc(OC)cc1)[C@@]21Cc2ccccc2C1=O | 78.7% | 75.5% | 89.1% | 107% | 88.2% | 94.1% | 72.1% | 3.8% | 66.9% | 67.3% | 99.4% | 104% | 98.2% | 3.3% | 93.3% | 95.4% | 20.2% | 85.2% | 99.9% | 89.1% | growth, % of control at 10 µM [21]: 104%; growth, % of control at 10 µM [22]: 97.7%; growth, % of control at 10 µM [23]: 104%; growth, % of control at 10 µM [24]: 101%; growth, % of control at 10 µM [25]: 88.4%; inhibition of growth at 10 µM [26]: 47.1%; growth, % of control at 10 µM [27]: 78.5%; growth, % of control at 10 µM [28]: 83.3%; growth, % of control at 10 µM [29]: 78.8%; growth, % of control at 10 µM [30]: 165%; inhibition of growth at 10 µM [31]: 17.7%; growth, % of control at 10 µM [32]: 124%; growth, % of control at 10 µM [33]: 88%; growth, % of control at 10 µM [34]: 95.2%; growth, % of control at 10 µM [35]: 88.7%; growth, % of control at 10 µM [36]: -4.27%; inhibition in vivo at 50 mg/kg [37]: 46.9%; growth, % of control at 10 µM [38]: 94.3%
